“Also recorded” adds a separate entry of the source. Where only a bound is given, the exact number is not on record here.

A short description of one data set: pKa. The format is physicochemical.
The test system of data set [1] is D4M.3A tumor. The data set is described as follows: Tumor growth in D4M.3A tumor-bearing C57/BL6 mice, oral dosing. The format is in vivo. The settings on record: 64 mg/kg orally once per day for 20 days. The source says:
A high volume of distribution (Vss 22.6 l/kg) was observed. […] MPT-0118 is quickly distributed from the plasma to the tissue compartment, which reduces the risk for depletion of circulating Tregs. The high volume of distribution and accumulation of MPT-0118 in tumor tissue broadens the therapeutic window for cancer therapy.

The test system of data set [2] is D4M.3A tumor. The data set is described as follows: D4M.3A syngeneic tumors in C57BL/6J mice, I.P. monotherapy and combination with anti-PD-1. It is filed as in vivo. The protocol: One million cells of D4M.3A tumor were injected subcutaneously into the right hind flank of C57BL/6J mice.
Anti-PD-1 Antibody dosing was 10 μL/g animal weight for 3 doses on first, third and fifth treatment day.
Measurement of tumor volume (L×W2)/2 was done by caliper. Longest tumor diameter becomes length. Width is perpendicular to length. Volume=(width2×length)/2.

Data set [3] is described as follows: Tumor pharmacokinetics in D4M.3A tumor-bearing C57/BL6 mice. The format is in vivo. The settings on record: 64 mg/kg PO once per day, after 20 days of dosing, for a 24-hour period. The procedure: (§1) A high volume of distribution (Vss 22.6 l/kg) was observed. […] The tumor concentrations in this experiment were above 3 μM for a 24-hour period, which is a required dose for an anti-tumor effect in patient-derived tumor spheroids as shown in FIG. 9. […] MPT-0118 is quickly distributed from the plasma to the tissue compartment, which reduces the risk for depletion of circulating Tregs. The high volume of distribution and accumulation of MPT-0118 in tumor tissue broadens the therapeutic window for cancer therapy.

A short description of data set [4]: Plasma pharmacokinetics in C57/BL6 mice. It is filed as in vivo. The protocol: as §1
The subject of data set [5] is circulating regulatory T cells (Tregs). The data set is described as follows: Circulating Tregs in rats under continuous oral dosing (flow cytometry). It is filed as in vivo. The settings on record: 15 and 30 mg/kg oral, days 0 through 14. The source says: Animals: Harlan Sprague Dawley rats (Hsd:SD) rats were procured through Envigo (Indianapolis, IN). Rats were individually housed in an Optirat carousel with a filtered air supply (Animal Care Systems, Inc. [Centennial, CO]). Rats were fed Teklad rodent diet (Cat. #2020X) and bedded with Teklad ⅛th inch corncob bedding.
Blood sampling: After a 72-hour acclimation period, Rats were randomized into (3) groups of 5 rats each (Day −1). Blood samples were taken on days: −1, 3, 5, 7, 10, and 14. Blood sampling was conducted by inserting a 22 g PinPort injector (Cat. #PNP3M) on the pinport and drawing 200 μL of catheter Loc solution using a 1 mL syringe. The syringe was discarded and a new 1 mL syringe was used to draw approximately 300 μL of whole blood. Whole blood was expelled into 1.7 mL K2EDTA coated tubes and inverted 3× and put at 4 C until processing for flow cytometry. A syringe with Catheter Loc solution (Heparin/Glycerol Loc solution, Cat. #HGS-5 [Braintree Scientific]) was placed on a new PinPort injector and 200 μL of catheter loc solution was added. […]
Flow cytometry: Following red blood cell lysis (BD Pharm Lyse, Cat. #555899, Lot #9311388), rat blood samples were stained with near-IR fixable viability dye (1:3000 dilution, Invitrogen, Cat. #L34960 H, Lot #2159963) for 30 minutes at room temperature. […] Data was analyzed with FlowJo (BD, v10.6.2).

Data set [6] in a line: Serum IgE and IgG in dogs dosed daily for 28 days. The format is in vivo. As to conditions: 10-30 mg/kg daily for 28 days. The protocol:
Whole venous blood samples of approximately 1 mL were collected from a peripheral vein of all animals on day 0 and on day 28 of the treatment period for determination of IgG and IgE concentrations. Test samples were diluted and incubated in the microtiter wells for 45 minutes alongside dog IgG or IgE standards. The microtiter wells were subsequently washed and HRP conjugate is added and incubated for 45 minutes. IgG or IgE molecules are thus sandwiched between the immobilization and detection antibodies. The wells were then washed to remove unbound HRP-labeled antibodies and TMB reagent was added and incubated for 20 minutes at room temperature. […] Color development is stopped by the addition of Stop Solution, changing the color to yellow, and optical density is measured spectrophotometrically at 450 nm. The concentration of IgG or IgE is proportional to the optical density of the test sample and is derived from a standard curve.

The test system of data set [7] is patient-derived tumor spheroids. The data set is described as follows: Anti-tumor effect in patient-derived tumor spheroids. It is filed as cell-based.
The conditions of data set [8]: in vivo; cited from earlier work.

Compound `CO[C@@H](C)c1c(NC(=O)Nc2cnc(-n3nccn3)c(Cl)c2)cnc2cc(Cl)nn12` [Example-10] registered a pKa in “pKa” below 5.

In the case of `CN1CCC[C@H](CN2c3ccccc3Sc3ccccc32)C1` [(S)-mepazine], the tumor growth inhibition entry in the data set on D4M.3A tumor [1] is recorded as “significant tumor growth inhibition”. Moreover, the pKa in “pKa” was found to be 9.2. Also, the tumor volume entry is reported as “significant reduction in tumor volume; also recorded: reduced tumor volume” in the data set on D4M.3A tumor [2] (combination therapy: 32 mg/kg I.P. once per day with anti-PD-1 antibody) and “reduced tumor volume” in the data set on D4M.3A tumor [2] (monotherapy, 32 mg/kg I.P. once per day, from day 9). The tumor concentrations result in data set [3] is reported as “above 3 μM”. In data set [4] (C57/BL6, mouse, single dose 16 mg/kg IV, plasma over 8 hours, read-out: volume of distribution (Vss)), the Vd came to 22.6 L/kg. Further, the bioavailability in data set [4] (mouse, in vivo, po) lay within 25 to 35%. Also, in data set [5], the “average percent of circulating regulatory T cells (Tregs)” value is “no effect; also recorded: did not deplete”. The “serum levels of IgE” value in data set [6] is given as “not negatively impact; also recorded: did not increase; also recorded: did not decrease”. In addition, the “serum levels of IgG” value in data set [6] is given as “not negatively impact; also recorded: did not increase; also recorded: did not decrease”. For the same compound, the “required dose for an anti-tumor effect in patient-derived tumor spheroids” value in data set [7] came to 3 µM.

In turn, `CO[C@@H](C)c1c(NC(=O)Nc2cnc(-n3nccn3)c(C(F)(F)F)c2)cnc(N)c1Br` [Compound-139] registered a pKa in the data set “pKa” of 6.5.

On to `CO[C@@H](C)c1c(NC(=O)Nc2ccnc(C(F)(F)F)c2)cnc2cc(Cl)nn12` [MLT-943], for which the “serum IgE” value in [8] is listed as “increased”.

Values taken from patent US20230414629A1, “MATERIALS AND METHODS OF TREATING CANCER” (MONOPTEROS THERAPEUTICS, INC., priority 2020, published 2023).
